PMC8035258 (ChemMedChem, 2021)
Read-outs that look alike come from different tables or passages of the source.

What was measured:
[1] = target: Mitochondrial respiratory complex II (Mus musculus, UniProt Q8K2B3+Q9CQA3+Q9CXV1+Q9CZB0); assay: Complex II inhibition assay; type: biochemical; details: for inhibition at 100 µM: read-out: % Inhibition CII (100 μM), 100 μM; for inhibition at 100 µM / % Inhibition CII (100 μM): mouse liver mitochondria, mean ±SD of n = 4
[2] = test system: 22Rv1 prostate cancer cells; assay: MTS cytotoxicity assay in 22Rv1 prostate cancer cells; type: cell-based; details: for reduction of 22Rv1 cell viability: 100 μM, 48 hr treatment, MTS
TNBC MDA-MB-468 cells = assay: MTS cytotoxicity assay in MDA-MB-468 cells; type: cell-based; details: for SI (Selectivity Index): MDA-MB-468 over HEK293 cells; for IC50: read-out: MDA-MB-468 IC50, 72 hours, mean ±SD of n=3
[3] = test system: low tumorigenic human endothelial kidney (HEK293) cells; assay: MTS cytotoxicity assay in HEK293 cells; type: cell-based; details: read-out: HEK293 IC50
CII = details: read-out: CII IC50, cited from earlier work

Chain of Mitochondrial respiratory complex II (Q8K2B3 43-664): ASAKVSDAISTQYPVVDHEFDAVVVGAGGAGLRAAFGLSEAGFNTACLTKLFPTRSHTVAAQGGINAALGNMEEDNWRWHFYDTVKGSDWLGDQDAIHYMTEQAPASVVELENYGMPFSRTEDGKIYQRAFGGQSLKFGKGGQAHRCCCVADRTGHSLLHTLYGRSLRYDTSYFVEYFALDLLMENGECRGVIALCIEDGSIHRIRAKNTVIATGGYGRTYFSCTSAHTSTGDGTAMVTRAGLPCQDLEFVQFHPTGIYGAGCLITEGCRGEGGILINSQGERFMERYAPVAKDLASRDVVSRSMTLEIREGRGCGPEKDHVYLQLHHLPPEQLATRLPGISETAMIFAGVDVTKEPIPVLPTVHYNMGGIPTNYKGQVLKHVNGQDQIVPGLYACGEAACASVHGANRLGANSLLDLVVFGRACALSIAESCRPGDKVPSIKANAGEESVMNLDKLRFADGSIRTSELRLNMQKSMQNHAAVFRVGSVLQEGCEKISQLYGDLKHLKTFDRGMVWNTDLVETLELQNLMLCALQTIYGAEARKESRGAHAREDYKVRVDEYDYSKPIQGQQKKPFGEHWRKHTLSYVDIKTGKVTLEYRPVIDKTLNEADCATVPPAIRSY
Chain of Mitochondrial respiratory complex II (Q9CQA3 31-282): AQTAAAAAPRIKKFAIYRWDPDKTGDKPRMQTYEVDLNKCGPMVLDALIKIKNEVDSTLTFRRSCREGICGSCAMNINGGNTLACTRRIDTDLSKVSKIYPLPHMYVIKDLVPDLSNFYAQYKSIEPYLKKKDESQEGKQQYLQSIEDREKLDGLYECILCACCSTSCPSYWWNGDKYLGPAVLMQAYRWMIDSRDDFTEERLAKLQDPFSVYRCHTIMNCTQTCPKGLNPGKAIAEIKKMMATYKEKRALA
Chain of Mitochondrial respiratory complex II (Q9CZB0 30-169): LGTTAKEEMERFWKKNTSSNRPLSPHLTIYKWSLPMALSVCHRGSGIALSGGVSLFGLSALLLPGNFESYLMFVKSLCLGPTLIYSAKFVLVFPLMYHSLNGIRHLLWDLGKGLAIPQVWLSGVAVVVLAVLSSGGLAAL
Chain of Mitochondrial respiratory complex II (Q9CXV1 57-159): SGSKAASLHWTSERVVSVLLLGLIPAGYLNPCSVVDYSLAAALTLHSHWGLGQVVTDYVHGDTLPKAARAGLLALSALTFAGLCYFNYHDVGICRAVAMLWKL

| SMILES | inhibition at 100 µM [1] | reduction of 22Rv1 cell viability [2] | SI (Selectivity Index) (TNBC MDA-MB-468 cells) | IC50 ([3]; Homo sapiens, HEK293, 72 h) | other results |
| --- | --- | --- | --- | --- | --- |
| O=S1(=O)N=C(NCCc2c[nH]c3ccccc23)Nc2ccc(F)cc21 [Compound 36a, 3-((2-(1H-indol-3-yl)ethyl)amino)-7-fluoro-4H-benzo[e][1,2,4]thiadiazine 1,1-dioxide] | 17 ± 8.2% | 30% |  |  |  |
| CC(NC1=NS(=O)(=O)c2cc(Br)ccc2N1)c1ccccc1 (stereo not shown) [Compound 24c, 7-Bromo-3-((1-phenylethyl)amino)-4H-benzo[e][1,2,4]thiadiazine 1,1-dioxide] | 55 ± 8.2% | 70% | 11 | 32.2 ± 1.5 µM | IC50 [1]: 79.8 ± 4.1 µM; IC50 ([2]; Homo sapiens, 22Rv1, read-out: 22Rv1 IC50): 38.9 ± 3.2 µM |
| O=c1[nH]cc(F)c(=O)[nH]1 [5-Fluorouracil, reference compound] |  |  | 1.03 | 7.06 ± 0.8 µM | SI (Selectivity Index) (TNBC MDA-MB-468 cells; listed as 5-fluorouracil): 1 |
| O=S1(=O)N=C(NCCCc2ccccc2)Nc2ccc(F)cc21 [Compound 23a, 7-Fluoro-3-((3-phenylpropyl)amino)-4H-benzo[e][1,2,4]thiadiazine 1,1-dioxide] | 14 ± 10.4% |  | 3.12 | 181 ± 7.3 µM |  |
| O=S1(=O)N=C(NCCc2ccc(F)cc2)Nc2ccc(Br)cc21 [Compound 33c, 7-Bromo-3-((4-fluorophenethyl)amino)-4H-benzo[e][1,2,4]thiadiazine 1,1-dioxide] | 45 ± 17.1% |  | 2.42 | 48.7 ± 12 µM |  |
| O=S1(=O)N=C(NCc2ccc(C(F)(F)F)cc2)Nc2cc(Cl)ccc21 [Compound 25b, 6-Chloro-3-((4-(trifluoromethyl)benzyl)amino)-4Hbenzo[e][1,2,4]thia-d iazine 1,1-dioxide] |  |  |  |  | % Inhibition CII (100 μM) [1]: 19 ±10.1%; IC50 (TNBC MDA-MB-468 cells): 25.1 ± 3.8 µM |
| COc1ccccc1CNC1=NS(=O)(=O)c2cc(Br)ccc2N1 [Compound 26c, 7-Bromo-3-((2-methoxybenzyl)amino)-4H-benzo[e][1,2,4]thiadiazine 1,1-dioxide] | 44 ± 12.3% |  | 4 | 54.4 ± 4.2 µM |  |
| O=S1(=O)N=C(NCc2ccc(OC(F)(F)F)cc2)Nc2ccccc21 [Compound 30d, 3-((4-(Trifluoromethoxy)benzyl)amino)-4H-benzo[e][1,2,4]thiadiazine 1,1-dioxide] | 7 ± 6.2% | approximately 30% |  |  |  |
| O=S1(=O)N=C(NC2CCCC2)Nc2cc(Cl)ccc21 [Compound 22b, 6-Chloro-3-(cyclopentylamino)-4H-benzo[e][1,2,4]thiadiazine 1,1-dioxide] |  | 34% |  |  |  |
| O=S1(=O)N=C(NCc2ccc(C(F)(F)F)cc2)Nc2ccc(Br)cc21 [Compound 25c, 7-Bromo-3-((4-(trifluoromethyl)benzyl)amino)-4H-benzo[e][1,2,4]thiadiazine 1,1-dioxide] |  | 34% |  | 57.5 ± 4.7 µM |  |
| O=S1(=O)N=C(NCCc2ccccc2)Nc2ccc(Br)cc21 [Compound 18c, 7-Bromo-3-(phenethylamino)-4H-benzo[e][1,2,4]thiadiazine 1,1-dioxide] | 37 ± 4.7% |  | 3.4 | 63.1 ± 1.8 µM |  |
| COc1ccccc1CNC1=NS(=O)(=O)c2cc(F)ccc2N1 [Compound 26a, 7-Fluoro-3-((2-methoxybenzyl)amino)-4H-benzo[e][1,2,4]thiadiazine 1,1-dioxide] | 27 ± 5.6% |  | 3.03 | 47.6 ± 2 µM |  |
| O=S1(=O)N=C(NCCc2c[nH]c3ccccc23)Nc2cc(Cl)ccc21 [Compound 36b, 3-((2-(1H-indol-3-yl)ethyl)amino)-6-chloro-4H-benzo[e][1,2,4]thiadiazine 1,1-dioxide] | 25 ± 19% |  | 2.66 | 41.3 ± 5.2 µM |  |
| O=S1(=O)N=C(NCc2ccc(Cl)cc2)Nc2cc(Cl)ccc21 [Compound 16b, 6-Chloro-3-((4-chlorobenzyl)amino)-4H-benzo[e][1,2,4]thiadiazine 1,1-dioxide] |  | 10% |  |  |  |
| CC(NC1=NS(=O)(=O)c2cc(F)ccc2N1)c1ccccc1 (stereo not shown) [Compound 24a, 7-Fluoro-3-((1-phenylethyl)amino)-4H-benzo[e][1,2,4]thiadiazine 1,1-dioxide] | 22 ± 9.9% | 34% | 10.2 | 42.6 ± 5.9 µM |  |
| C=CCNC1=NS(=O)(=O)c2cc(F)ccc2N1 [Compound 32a, 3-(Allylamino)-7-fluoro-4H-benzo[e][1,2,4]thiadiazine 1,1-dioxide] | 38 ± 7.8% | 24% |  |  |  |
| O=S1(=O)NC(=S)Nc2cc(Cl)ccc21 [Compound 12b, 6-Chloro-3-thioxo-3,4-dihydro-2H-1,2,4-benzothiadiazine 1,1-dioxide] | 81 ± 6.9% | 12% |  |  | IC50 [1]: 11.9 ± 3.3 µM |

| SMILES | inhibition at 100 µM [1] | reduction of 22Rv1 cell viability [2] | SI (Selectivity Index) (TNBC MDA-MB-468 cells) | IC50 ([3]; Homo sapiens, HEK293, 72 h) | other results |
| --- | --- | --- | --- | --- | --- |
| O=S1(=O)N=C(NCc2ccc(Cl)cc2)Nc2ccc(Br)cc21 [Compound 16c, 7-Bromo-3-((4-chlorobenzyl)amino)-4H-benzo[e][1,2,4]thiadiazine 1,1-dioxide dioxide] |  |  |  |  | % Inhibition CII (100 μM) [1]: 45 ±5.6%; IC50 (TNBC MDA-MB-468 cells): 12.5 ± 0.3 µM; IC50 ([3]; 72 hours, mean ±SD of n=3): 43.1 ± 3.2 µM |
| O=C(O)CC(=O)O [Malonate] |  |  |  |  | IC50 (CII; competitive CII inhibitor): 40 µM |
| COc1ccc(CCNC2=NS(=O)(=O)c3cc(F)ccc3N2)cc1 [Compound 39a, 7-Fluoro-3-((4-methoxyphenethyl)amino)-4H-benzo[e][1,2,4]thiadiazine 1,1-dioxide] | 18 ± 6.2% |  | 3.27 | 123 ± 21.4 µM |  |
| COc1ccc(CNC2=NS(=O)(=O)c3cc(Br)ccc3N2)cc1 [Compound 20c, 7-Bromo-3-((4-methoxybenzyl)amino)-4H-benzo[e][1,2,4]thiadiazine 1,1-dioxide] | 64 ± 15.3% | 41% | 3.23 | 88 ± 12.3 µM | IC50 [1]: 79.7 ± 4 µM |
| O=S1(=O)NC(=S)Nc2ccc(Br)cc21 [Compound 12c, 7-Bromo-3-thioxo-3,4-dihydro-2H-1,2,4-benzothiadiazine 1,1-dioxide] | 55 ± 15.2% | 16% |  |  | IC50 [1]: 37 ± 2.4 µM |
| O=C(CC(=O)C(F)(F)F)c1cccs1 [TFFA, Thenoyltrifluoroacetone] |  |  |  |  | IC50 (CII; control compound in CII assays): 30 µM |
| Cc1c(C)c2c(c(C)c1OC(=O)CCC(=O)O)CC[C@@](C)(CCC[C@H](C)CCC[C@H](C)CCCC(C)C)O2 [α-TOS, α -Tocopheryl succinate] |  |  |  |  | IC50 (CII): 42 µM |
| O=S1(=O)N=C(NCc2ccc(OC(F)(F)F)cc2)Nc2ccc(Br)cc21 [Compound 30c, 7-Bromo-3-((4-(trifluoromethoxy)benzyl)amino)-4H-benzo[e][1,2,4] thiadiazine 1,1-dioxide] | 21% | 45% | 2.93 | 52.9 ± 1.8 µM | % Inhibition CII (100 μM) [1]: 22 ±21.1%; IC50 (TNBC MDA-MB-468 cells): 18 ± 1.4 µM |
| CC(NC1=NS(=O)(=O)c2ccc(Cl)cc2N1)c1ccccc1 (stereo not shown) [Compound 24b, 6-Chloro-3-((1-phenylethyl)amino)-4H-benzo[e][1,2,4]thiadiazine 1,1-dioxide] | 51 ± 13.9% | 50% | 2.72 | 118 ± 22.3 µM | IC50 [1]: 89 ± 10.4 µM |
| O=C1Nc2ccc(F)cc2S(=O)(=O)N1 [Compound 11a, 7-Fluoro-3-oxo-3,4-dihydro-2H-1,2,4-benzothiadiazine 1,1-dioxide] | 6 ± 1.5% |  |  |  |  |
| Cc1ccc(CNC2=NS(=O)(=O)c3cc(F)ccc3N2)cc1 [Compound 27a, 7-Fluoro-3-((4-methylbenzyl)amino)-4H-benzo[e][1,2,4]thiadiazine 1,1-dioxide] | 23 ± 9.9% |  |  |  |  |
| O=S1(=O)N=C(NCc2ccccc2)Nc2ccc(F)cc21 [Compound 21a, 3-(Benzylamino)-7-fluoro-4H-benzo[e][1,2,4]thiadiazine 1,1-dioxide] | 0% |  |  |  |  |
| O=S1(=O)N=C(NCCc2cccc(C(F)(F)F)c2)Nc2ccc(F)cc21 [Compound 41a, 7-Fluoro-3-((3-(trifluoromethyl)phenethyl)amino)-4H-benzo[e][1,2,4] thiadiazine 1,1-dioxide] | 20 ± 5.2% |  |  |  |  |
| O=S1(=O)N=C(NCCCc2ccccc2)Nc2ccc(Br)cc21 [Compound 23c, 7-Bromo-3-((3-phenylpropyl)amino)-4H-benzo[e][1,2,4]thiadiazine 1,1-dioxide] | 47% | 42% | 7.75 | 71.8 ± 8.2 µM | % Inhibition CII (100 μM) [1]: 46 ±13.4% |
| CC(C)C(C)NC1=NS(=O)(=O)c2ccccc2N1 (stereo not shown) [Compound 15d, 3-((3-Methylbutan-2-yl)amino)-4H-benzo[e][1,2,4]thiadiazine 1,1-dioxide] | 0% |  |  |  |  |
| CC(NC1=NS(=O)(=O)c2ccccc2N1)c1ccccc1 (stereo not shown) [Compound 24d, 3-((1-Phenylethyl)amino)-4H-benzo[e][1,2,4]thiadiazine 1,1-dioxide] | 0% | approximately 30% | 3.92 | 48.6 ± 1.7 µM |  |
| CC(C)C(C)NC1=NS(=O)(=O)c2cc(Br)ccc2N1 (stereo not shown) [Compound 15c, 7-Bromo-3-((3-methylbutan-2-yl)amino)-4Hbenzo[e][1,2,4]thiadiazine 1,1-dioxide] | 19 ± 10.4% |  | 1.75 | 35.7 ± 1.6 µM |  |
